In patent US9617602B2, “Methods and compositions for determining resistance to androgen receptor therapy” (Aragon Pharmaceuticals, Inc., priority 2012, dated 2017):
Residue numbers refer to the chain shown, from its start.

Legend:
wild-type VP16-AR = wild-type VP16-AR (Homo sapiens, UniProt P10275)
Experimental: (§1) AR point mutations were generated in VP16-AR using the QuickChange II Site-Directed Mutagenesis Kit (Agilent Technologies, Santa Clara, Calif.) according to the manufacturer's protocol.
(§2) Transcription assays were performed essentially as described above. […] Luciferase activity was measured as described above.

F876L VP16-AR = F876L VP16-AR (Homo sapiens, UniProt P10275, DEL79-80/DUP473-473/F877L)
Experimental: as §1, §2

wild-type AR = molecular target: T1, wild-type AR (Homo sapiens, UniProt P10275, DEL79-80/DUP473-473)
T1 sequence (P10275 with tags, fused parts or gaps DEL79-80/DUP473-473): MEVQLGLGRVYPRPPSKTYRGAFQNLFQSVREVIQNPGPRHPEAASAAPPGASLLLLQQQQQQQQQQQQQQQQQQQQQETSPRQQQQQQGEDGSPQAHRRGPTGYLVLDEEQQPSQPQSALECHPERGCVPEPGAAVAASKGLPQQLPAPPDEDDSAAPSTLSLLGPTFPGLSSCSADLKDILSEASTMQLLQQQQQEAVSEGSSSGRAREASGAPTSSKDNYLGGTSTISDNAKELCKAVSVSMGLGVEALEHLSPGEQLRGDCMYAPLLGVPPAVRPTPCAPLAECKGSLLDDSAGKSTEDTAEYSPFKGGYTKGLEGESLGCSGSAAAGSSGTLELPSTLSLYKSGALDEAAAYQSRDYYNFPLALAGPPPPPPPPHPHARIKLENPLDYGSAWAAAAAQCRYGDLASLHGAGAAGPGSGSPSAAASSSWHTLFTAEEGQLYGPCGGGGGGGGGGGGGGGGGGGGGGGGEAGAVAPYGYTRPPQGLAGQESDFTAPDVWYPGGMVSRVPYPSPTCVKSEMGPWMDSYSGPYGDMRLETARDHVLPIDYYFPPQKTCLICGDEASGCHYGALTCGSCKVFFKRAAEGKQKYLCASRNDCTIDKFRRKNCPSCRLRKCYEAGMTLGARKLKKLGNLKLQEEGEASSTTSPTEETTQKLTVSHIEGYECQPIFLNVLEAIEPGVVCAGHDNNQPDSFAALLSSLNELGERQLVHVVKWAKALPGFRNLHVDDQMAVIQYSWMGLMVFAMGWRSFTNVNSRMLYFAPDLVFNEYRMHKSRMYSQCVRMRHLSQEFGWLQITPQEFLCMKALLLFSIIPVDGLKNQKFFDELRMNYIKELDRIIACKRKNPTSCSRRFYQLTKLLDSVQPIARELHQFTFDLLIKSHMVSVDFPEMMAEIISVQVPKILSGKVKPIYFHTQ
Experimental: (§3) Transcriptional reporter assays were performed by seeding 100 μL of HEPG2 cells at a density of 250,000 cells/mL into 96-well cell culture plates in MEM supplemented with 10% charcoal stripped serum and allowed to attach overnight at 37° C.
(§4) Cells were transiently transfected using Lipofectin® (Life Technologies) according to the manufacturer's protocol.
(§5) Following 48 hour incubation the medium was removed and the cells were lysed in 40 μL of lysis buffer (25 mM Tris Phosphate, 2 mM CDTA, 10% Glycerol, 0.5% Triton X-100, 2 mM DTT).
(§6) The AR transcriptional reporter assays were performed essentially as described above with minor modifications. Triplicate transfections were performed using 50 ng pCDNA3-AR or pCDNA3-AR mutant, 65 ng 4×ARE-Luciferase, 20 ng pRL (Promega), and 25 ng pCMX.

F876L AR = molecular target: T2, F876L AR (Homo sapiens, UniProt P10275, DEL79-80/DUP473-473/F877L)
T2 sequence (P10275 with tags, fused parts or gaps DEL79-80/DUP473-473/F877L): T1 sequence (P10275 with tags, fused parts or gaps DEL79-80/DUP473-473) with F876L
Experimental: as §3, §4, §5, §6

SMILES: CC(C)(O)C(=O)Nc1ccc([N+](=O)[O-])c(C(F)(F)F)c1 [Hydroxyflutamide, hydroxyflutamide]
- AR-VP16 WT Emax (wild-type VP16-AR): 42.28 ± 4.44 percent maximal R1881 response
- AR-VP16 F876L Emax (F876L VP16-AR): 5.36 ± 5.35 percent maximal R1881 response
- 4X ARE Reporter Assay WT Emax (wild-type AR): 28.9 ± 5.0 percent maximal R1881 response
- 4X ARE Reporter Assay F876L Emax (F876L AR): 0.8 ± 0.2 percent maximal R1881 response
